Columns and labels:
[1] = biological target: T1, Bone morphogenetic protein receptor type-2 (Homo sapiens, UniProt Q13873)
T1 sequence (Q13873 whole entry): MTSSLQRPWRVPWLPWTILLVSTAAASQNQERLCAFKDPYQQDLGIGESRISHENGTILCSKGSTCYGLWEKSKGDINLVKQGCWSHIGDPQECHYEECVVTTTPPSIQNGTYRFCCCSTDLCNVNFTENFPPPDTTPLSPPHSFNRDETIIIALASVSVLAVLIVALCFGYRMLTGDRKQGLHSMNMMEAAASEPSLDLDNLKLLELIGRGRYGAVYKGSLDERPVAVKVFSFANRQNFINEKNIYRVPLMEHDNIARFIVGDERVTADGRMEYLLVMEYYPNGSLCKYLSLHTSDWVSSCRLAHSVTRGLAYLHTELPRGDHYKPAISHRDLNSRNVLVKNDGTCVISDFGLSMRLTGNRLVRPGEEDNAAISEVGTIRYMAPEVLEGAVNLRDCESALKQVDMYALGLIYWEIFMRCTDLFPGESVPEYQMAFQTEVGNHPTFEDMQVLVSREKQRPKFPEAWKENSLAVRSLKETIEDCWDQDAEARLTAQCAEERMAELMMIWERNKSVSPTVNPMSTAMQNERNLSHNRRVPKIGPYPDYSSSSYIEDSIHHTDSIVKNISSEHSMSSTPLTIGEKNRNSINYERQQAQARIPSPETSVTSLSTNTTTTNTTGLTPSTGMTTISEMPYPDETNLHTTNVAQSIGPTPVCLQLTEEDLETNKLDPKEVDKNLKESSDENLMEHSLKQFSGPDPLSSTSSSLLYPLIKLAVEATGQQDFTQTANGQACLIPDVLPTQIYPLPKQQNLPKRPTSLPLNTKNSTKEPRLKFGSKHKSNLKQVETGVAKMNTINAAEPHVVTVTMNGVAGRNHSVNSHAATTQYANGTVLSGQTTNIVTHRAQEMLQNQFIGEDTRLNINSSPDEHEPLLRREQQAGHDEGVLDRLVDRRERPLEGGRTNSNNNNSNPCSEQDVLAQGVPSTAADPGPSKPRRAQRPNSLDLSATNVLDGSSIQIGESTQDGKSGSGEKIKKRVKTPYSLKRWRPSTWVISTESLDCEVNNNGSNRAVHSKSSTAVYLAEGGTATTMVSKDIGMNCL

[2] = biological target: Serine/threonine-protein kinase 32C (Homo sapiens, UniProt Q86UX6)
[3] = biological target: Tyrosine-protein kinase Lyn (Homo sapiens, UniProt P07948)
Sequence of Tyrosine-protein kinase Lyn (P07948 whole entry): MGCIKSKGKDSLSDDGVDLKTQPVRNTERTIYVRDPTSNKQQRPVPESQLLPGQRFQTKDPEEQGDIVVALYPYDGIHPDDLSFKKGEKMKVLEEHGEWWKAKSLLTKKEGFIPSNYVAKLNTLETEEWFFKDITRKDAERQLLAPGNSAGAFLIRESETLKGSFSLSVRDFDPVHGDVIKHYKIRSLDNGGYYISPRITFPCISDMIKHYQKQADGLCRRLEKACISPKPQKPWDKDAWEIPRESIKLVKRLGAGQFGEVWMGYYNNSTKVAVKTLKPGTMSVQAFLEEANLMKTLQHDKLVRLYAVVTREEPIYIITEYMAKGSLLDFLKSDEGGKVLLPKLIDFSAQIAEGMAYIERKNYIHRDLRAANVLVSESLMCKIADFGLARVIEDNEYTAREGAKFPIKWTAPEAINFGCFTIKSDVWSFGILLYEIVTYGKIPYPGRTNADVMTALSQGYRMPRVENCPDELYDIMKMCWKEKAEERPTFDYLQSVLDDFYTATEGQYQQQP

[4] = biological target: High affinity nerve growth factor receptor (Homo sapiens, UniProt P04629)
Sequence of High affinity nerve growth factor receptor (P04629 whole entry): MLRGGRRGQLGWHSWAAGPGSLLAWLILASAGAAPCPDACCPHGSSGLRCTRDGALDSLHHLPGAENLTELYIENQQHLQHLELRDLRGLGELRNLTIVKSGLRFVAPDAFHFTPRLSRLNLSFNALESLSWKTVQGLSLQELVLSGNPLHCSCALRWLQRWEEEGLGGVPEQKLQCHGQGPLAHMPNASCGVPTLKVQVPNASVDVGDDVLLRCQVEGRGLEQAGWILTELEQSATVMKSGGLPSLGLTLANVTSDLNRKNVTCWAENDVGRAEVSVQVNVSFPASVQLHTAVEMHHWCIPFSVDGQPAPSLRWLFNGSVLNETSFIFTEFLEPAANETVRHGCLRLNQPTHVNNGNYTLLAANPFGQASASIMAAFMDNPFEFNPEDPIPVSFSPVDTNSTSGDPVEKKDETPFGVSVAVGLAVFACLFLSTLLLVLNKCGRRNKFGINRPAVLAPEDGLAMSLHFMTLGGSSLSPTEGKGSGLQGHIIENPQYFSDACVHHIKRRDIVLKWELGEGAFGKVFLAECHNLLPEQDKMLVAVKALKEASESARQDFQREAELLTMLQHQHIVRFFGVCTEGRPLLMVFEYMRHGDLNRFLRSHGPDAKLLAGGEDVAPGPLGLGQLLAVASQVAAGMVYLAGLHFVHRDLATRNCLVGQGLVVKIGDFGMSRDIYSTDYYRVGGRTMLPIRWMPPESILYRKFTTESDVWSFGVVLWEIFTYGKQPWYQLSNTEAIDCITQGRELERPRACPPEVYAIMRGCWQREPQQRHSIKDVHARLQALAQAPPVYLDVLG

[5] = biological target: Hepatocyte growth factor receptor (Homo sapiens, UniProt P08581)
[6] = biological target: Dual specificity tyrosine-phosphorylation-regulated kinase 1B (Homo sapiens, UniProt Q9Y463)
Sequence of Dual specificity tyrosine-phosphorylation-regulated kinase 1B (Q9Y463 whole entry): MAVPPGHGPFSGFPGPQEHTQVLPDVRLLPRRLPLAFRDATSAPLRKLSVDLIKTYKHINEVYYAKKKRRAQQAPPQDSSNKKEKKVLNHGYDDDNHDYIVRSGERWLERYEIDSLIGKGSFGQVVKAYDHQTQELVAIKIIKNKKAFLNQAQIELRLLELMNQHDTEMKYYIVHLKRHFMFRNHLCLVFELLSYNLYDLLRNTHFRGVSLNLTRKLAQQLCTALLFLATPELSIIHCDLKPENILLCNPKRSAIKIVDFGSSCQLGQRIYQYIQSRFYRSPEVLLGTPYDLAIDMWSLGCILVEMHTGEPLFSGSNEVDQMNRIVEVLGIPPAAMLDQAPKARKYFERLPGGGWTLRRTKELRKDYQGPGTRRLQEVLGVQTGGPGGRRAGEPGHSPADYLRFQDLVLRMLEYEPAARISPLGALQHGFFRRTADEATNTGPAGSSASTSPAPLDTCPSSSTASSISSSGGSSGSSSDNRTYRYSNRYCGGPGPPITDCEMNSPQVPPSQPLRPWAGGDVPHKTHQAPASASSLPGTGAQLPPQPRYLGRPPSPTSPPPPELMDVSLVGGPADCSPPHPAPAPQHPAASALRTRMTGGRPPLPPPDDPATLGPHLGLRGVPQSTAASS

[7] = biological target: Serine/threonine-protein kinase 25 (Homo sapiens, UniProt O00506)
Sequence of Serine/threonine-protein kinase 25 (O00506 whole entry): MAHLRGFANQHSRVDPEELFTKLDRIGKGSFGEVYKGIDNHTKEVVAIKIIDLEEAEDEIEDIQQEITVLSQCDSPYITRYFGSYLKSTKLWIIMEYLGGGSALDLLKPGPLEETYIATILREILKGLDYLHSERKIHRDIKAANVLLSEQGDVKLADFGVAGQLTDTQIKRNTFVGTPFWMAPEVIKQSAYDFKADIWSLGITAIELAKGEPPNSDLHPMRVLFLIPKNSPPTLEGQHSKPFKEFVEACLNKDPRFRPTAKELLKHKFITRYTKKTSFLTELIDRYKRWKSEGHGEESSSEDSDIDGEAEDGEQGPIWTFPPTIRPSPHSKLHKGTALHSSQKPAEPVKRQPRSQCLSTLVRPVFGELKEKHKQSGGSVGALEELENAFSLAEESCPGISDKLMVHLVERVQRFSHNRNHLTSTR

[8] = biological target: Mitogen-activated protein kinase 10 (Homo sapiens, UniProt P53779)
Sequence of Mitogen-activated protein kinase 10 (P53779 whole entry): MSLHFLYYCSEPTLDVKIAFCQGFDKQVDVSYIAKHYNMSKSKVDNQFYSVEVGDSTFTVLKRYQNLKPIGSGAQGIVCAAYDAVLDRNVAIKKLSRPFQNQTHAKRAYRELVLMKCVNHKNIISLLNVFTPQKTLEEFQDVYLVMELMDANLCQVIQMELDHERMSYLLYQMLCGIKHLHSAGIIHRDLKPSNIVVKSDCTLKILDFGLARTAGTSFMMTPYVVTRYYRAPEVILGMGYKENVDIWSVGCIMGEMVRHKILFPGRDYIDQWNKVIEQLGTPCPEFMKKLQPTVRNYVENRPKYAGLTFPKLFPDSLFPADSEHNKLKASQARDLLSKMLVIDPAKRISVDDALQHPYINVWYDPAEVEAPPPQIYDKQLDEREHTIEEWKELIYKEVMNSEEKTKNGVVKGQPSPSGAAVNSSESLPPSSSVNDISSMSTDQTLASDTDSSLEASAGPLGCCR

[9] = biological target: T2, Serine/threonine-protein kinase 17A (Homo sapiens, UniProt Q9UEE5)
T2 sequence (Q9UEE5 whole entry): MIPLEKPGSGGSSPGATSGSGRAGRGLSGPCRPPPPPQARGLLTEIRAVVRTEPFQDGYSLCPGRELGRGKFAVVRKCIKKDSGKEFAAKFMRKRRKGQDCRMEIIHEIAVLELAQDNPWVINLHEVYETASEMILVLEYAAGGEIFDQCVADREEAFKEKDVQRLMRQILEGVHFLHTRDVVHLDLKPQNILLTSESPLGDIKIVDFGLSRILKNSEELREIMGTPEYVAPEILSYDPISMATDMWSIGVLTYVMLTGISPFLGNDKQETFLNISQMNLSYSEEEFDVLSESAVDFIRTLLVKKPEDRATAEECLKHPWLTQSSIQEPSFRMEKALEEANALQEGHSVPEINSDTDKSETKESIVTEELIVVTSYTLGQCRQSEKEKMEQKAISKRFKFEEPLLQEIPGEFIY

[10] = biological target: Receptor-interacting serine/threonine-protein kinase 2 (Homo sapiens, UniProt O43353)
Sequence of Receptor-interacting serine/threonine-protein kinase 2 (O43353 whole entry): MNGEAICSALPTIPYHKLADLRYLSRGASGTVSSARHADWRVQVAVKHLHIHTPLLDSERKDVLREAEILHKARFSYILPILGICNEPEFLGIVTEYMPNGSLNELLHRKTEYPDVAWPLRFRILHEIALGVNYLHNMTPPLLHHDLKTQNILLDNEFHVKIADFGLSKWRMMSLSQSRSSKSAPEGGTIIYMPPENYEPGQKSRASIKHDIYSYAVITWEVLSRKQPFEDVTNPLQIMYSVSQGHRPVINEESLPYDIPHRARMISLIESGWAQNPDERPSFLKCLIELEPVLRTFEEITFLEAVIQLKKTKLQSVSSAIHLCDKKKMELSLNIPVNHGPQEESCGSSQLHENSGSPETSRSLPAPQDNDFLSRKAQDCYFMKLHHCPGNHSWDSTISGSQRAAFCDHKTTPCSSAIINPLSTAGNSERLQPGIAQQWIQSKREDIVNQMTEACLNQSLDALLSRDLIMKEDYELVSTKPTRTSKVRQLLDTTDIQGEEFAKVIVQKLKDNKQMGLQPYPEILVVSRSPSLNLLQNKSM

[11] = biological target: Myosin light chain kinase 2, skeletal/cardiac muscle (Homo sapiens, UniProt Q9H1R3)
Sequence of Myosin light chain kinase 2, skeletal/cardiac muscle (Q9H1R3 whole entry): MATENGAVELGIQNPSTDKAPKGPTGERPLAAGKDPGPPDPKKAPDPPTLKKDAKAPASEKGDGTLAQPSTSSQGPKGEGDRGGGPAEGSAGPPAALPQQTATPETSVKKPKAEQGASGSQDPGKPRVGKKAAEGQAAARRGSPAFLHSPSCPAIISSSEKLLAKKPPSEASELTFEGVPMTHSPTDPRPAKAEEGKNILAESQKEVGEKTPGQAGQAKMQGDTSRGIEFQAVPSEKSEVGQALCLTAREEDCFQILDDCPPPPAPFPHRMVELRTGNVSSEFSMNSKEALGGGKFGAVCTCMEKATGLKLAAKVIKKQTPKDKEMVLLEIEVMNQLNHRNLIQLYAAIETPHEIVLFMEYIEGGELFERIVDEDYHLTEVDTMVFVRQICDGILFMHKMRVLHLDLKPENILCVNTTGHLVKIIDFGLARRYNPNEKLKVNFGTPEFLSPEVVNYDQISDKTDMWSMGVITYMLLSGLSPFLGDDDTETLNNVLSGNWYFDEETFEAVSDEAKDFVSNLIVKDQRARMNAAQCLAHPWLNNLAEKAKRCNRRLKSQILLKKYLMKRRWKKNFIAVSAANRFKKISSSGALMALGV

[12] = biological target: Tyrosine-protein kinase ABL1 (Homo sapiens, UniProt P00519, E255K)
[13] = biological target: RAF proto-oncogene serine/threonine-protein kinase (Homo sapiens, UniProt P04049)
Sequence of RAF proto-oncogene serine/threonine-protein kinase (P04049 whole entry): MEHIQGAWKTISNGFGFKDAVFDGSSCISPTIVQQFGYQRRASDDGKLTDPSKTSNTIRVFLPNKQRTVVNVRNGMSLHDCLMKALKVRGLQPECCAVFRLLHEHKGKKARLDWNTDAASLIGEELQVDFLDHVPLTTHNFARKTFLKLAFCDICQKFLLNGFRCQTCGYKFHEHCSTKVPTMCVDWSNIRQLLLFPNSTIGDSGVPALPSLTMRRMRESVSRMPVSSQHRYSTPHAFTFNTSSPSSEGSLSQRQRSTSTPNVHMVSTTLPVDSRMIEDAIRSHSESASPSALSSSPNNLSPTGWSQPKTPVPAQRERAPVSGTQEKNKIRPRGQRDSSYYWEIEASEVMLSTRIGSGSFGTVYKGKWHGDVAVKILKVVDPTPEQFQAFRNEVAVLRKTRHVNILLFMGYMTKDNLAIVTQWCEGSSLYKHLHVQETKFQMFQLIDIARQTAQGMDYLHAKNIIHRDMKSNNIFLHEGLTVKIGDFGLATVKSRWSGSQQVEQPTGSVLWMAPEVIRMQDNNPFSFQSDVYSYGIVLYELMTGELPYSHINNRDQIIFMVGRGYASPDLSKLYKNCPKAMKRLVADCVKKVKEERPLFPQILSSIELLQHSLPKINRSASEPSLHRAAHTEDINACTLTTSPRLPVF

[14] = biological target: T3, Atypical kinase COQ8B, mitochondrial (Homo sapiens, UniProt Q96D53)
T3 sequence (Q96D53 whole entry): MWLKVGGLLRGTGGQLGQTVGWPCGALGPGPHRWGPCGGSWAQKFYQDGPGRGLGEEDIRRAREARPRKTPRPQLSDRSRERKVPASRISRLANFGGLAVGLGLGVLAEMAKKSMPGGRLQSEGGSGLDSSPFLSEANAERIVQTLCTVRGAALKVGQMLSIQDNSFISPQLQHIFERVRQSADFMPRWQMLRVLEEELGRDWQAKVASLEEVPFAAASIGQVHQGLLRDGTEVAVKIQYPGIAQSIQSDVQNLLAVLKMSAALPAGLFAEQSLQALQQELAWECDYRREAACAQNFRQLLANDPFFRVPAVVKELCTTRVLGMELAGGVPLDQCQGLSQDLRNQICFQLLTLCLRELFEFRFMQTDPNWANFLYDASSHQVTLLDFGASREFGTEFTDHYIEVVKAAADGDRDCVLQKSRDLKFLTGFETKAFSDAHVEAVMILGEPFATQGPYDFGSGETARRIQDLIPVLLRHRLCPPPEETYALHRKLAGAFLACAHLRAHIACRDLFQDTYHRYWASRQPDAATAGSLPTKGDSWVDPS

| SMILES | Kd [1] [µM] | Kd [2] [µM] | Kd [3] [µM] | Kd [4] [µM] | Kd [5] [µM] | Kd [6] [µM] | Kd [7] [µM] | Kd [8] [µM] | Kd [9] [µM] | Kd [10] [µM] | Kd [11] [µM] | Kd [12] [µM] | Kd [13] [µM] | Kd [14] [µM] |
| --- | --- | --- | --- | --- | --- | --- | --- | --- | --- | --- | --- | --- | --- | --- |
| COCC(=O)NC/C=C/c1ccc2ncnc(Nc3ccc(Oc4ccc(C)nc4)c(C)c3)c2c1 [CP-724714] | > 10 | > 10 | > 10 | > 10 | > 10 | > 10 | > 10 | > 10 | > 10 | > 10 | > 10 | > 10 | > 10 | > 10 |
| CCOc1cc2ncc(C#N)c(Nc3ccc(F)c(Cl)c3)c2cc1NC(=O)/C=C/CN(C)C [PELITINIB] | > 10 | > 10 | 0.72 | > 10 | 6.2 |  |  | > 10 |  | > 10 |  |  | > 10 | 6.1 |
| NC(=O)c1ccc(-c2nc(-c3ccc4c(c3)OCO4)c(-c3ccccn3)[nH]2)cc1 [SB-431542] | > 10 | > 10 | > 10 | > 10 | > 10 | > 10 | > 10 | > 10 | > 10 | 3.4 | > 10 | > 10 | > 10 | > 10 |
| Nc1nc(Nc2ccc(S(N)(=O)=O)cc2)nn1C(=O)c1c(F)cccc1F [JNJ-7706621] |  | > 10 | > 10 |  |  | > 10 | 0.36 |  |  | > 10 | > 10 |  | > 10 | > 10 |
| Oc1ccc(-c2nc(-c3ccncc3)c(-c3ccc(F)cc3)[nH]2)cc1 [SB-202190] | > 10 | > 10 | > 10 | > 10 | > 10 | > 10 | > 10 | 0.042 | > 10 |  | > 10 | > 10 |  | 4.9 |
